Assay results from patent US4547517A, “Microbicidal N-sulphenylated hydantoins” (Bayer Aktiengesellschaft, priority 1983, dated 1985).
Converted amounts (≈) assume the structure as drawn.

Tests used:
Fusarium nivale = Fusarium nivale test (rye)/seed treatment (Example 30); type: in vivo, Fusarium nivale (on rye); conditions: seed treatment, 500 mg/kg of seed, about 3 weeks after sowing, not dressed 12.8
Method: The active compounds are used as dry dressings. These are prepared by extending the particular active compound with a ground mineral to give a finely pulverulent mixture, which ensures uniform distribution on the seed surface. To apply the dressing, the infected seed is shaken with the dressing in a closed glass flask for 3 minutes. 2 batches of 100 grains of the rye are sown 1 cm deep in standard soil and are cultivated in a greenhouse at a temperature of about 10° C. and a relative atmospheric humidity of about 95%, in seedboxes which are exposed to light for 15 hours daily. About 3 weeks after sowing, the plants are evaluated for symptoms of snow mould.

[1] = system: Erysiphe graminis f.sp. hordei; test: Erysiphe test (barley)/protective (Example 29); type: in vivo, Erysiphe graminis f.sp. hordei (on barley); conditions: protective, active compound concentration in spray liquor 0.025 % by weight, 7 days after inoculation
Method: Solvent: 100 parts by weight of dimethylformamide Emulsifier: 0.25 part by weight of alkylaryl polyglycol ether To produce a suitable preparation of active compound, 1 part by weight of active compound is mixed with the stated amounts of solvent and emulsifier, and the concentrate is diluted with water to the desired concentration. To test for protective activity, young plants are sprayed with the preparation of active compound until dew-moist. After the spray coating has dried on, the plants are dusted with spores of Erysiphe graminis f.sp. hordei. The plants are placed in a greenhouse at a temperature of about 20° C. and a relative atmospheric humidity of about 80%, in order to promote the development of powdery mildew pustules. Evaluation is carried out 7 days after the inoculation.

Lentinus tigrinus = test: MIC against fungi in beer wort/peptone agar (Example 26); type: cell-based; conditions: 336 h, 28° C., 2 weeks
Method: (§1) Active compounds according to the invention are added in concentration of 0.1 mg/liter to 5,000 mg/liter to an agar prepared from beer wort and peptone. After storage at 28° C. and 60 to 70% relative atmospheric humidity for 2 weeks, the MIC is determined. The MIC is the lowest concentration of active compound at which no growth at all of the species of microbe used takes place; it is shown in the Table which follows.

Polyporus versicolor = test: as above; type: cell-based; conditions: Trametes versicolor, 336 h, 28° C., 2 weeks
Method: as §1

Penicillium glaucum = test: as above; type: cell-based; conditions: 336 h, 28° C., 2 weeks
Method: as §1

Sclerophoma pityophila = test: as above; type: cell-based; conditions: Sydowia polyspora, 336 h, 28° C., 2 weeks
Method: as §1

Alternaria tenuis = test: as above; type: cell-based; conditions: Alternaria alternata, 336 h, 28° C., 2 weeks
Method: as §1

Chaetomium globosum = test: as above; type: cell-based; conditions: 336 h, 28° C., 2 weeks
Method: as §1

Aspergillus niger = test: as above; type: cell-based; conditions: 336 h, 28° C., 2 weeks
Method: as §1

Coniophora cerebella = test: as above; type: cell-based; conditions: 336 h, 28° C., 2 weeks
Method: as §1

Aureobasidium pullulans = test: as above; type: cell-based; conditions: 336 h, 28° C., 2 weeks
Method: as §1

slime organisms = test: Action against slime organisms, MIC in Allens nutrient solution (Example 28); type: cell-based; conditions: 504 h, room temperature, 3 weeks
Method: The compounds according to Examples 3, 5 and 10 are each used, dissolved in a little acetone, in concentrations of 0.1 to 100 mg/liter in Allens nutrient solution (Arch. Mikrobiol. 17, 34-53 (1952)), which contains, in 4 liters of sterile water, 0.2 g of ammonium chloride, 4.0 g of sodium nitrate, 1.0 g of dipotassium hydrogen phosphate, 0.2 g of calcium chloride, 2.05 g of magnesium sulphate, 0.02 g of iron chloride and 1% of caprolactam. Shortly beforehand, the nutrient solution is infected with slime organisms (about 10^6 germs/ml), which have been isolated from spinning water circulations used in the manufacture of polyamide. Nutrient solutions which contain the minimum inhibitory concentration (MIC) or higher concentrations of active compound are still completely clear after culture at room temperature for 3 weeks, that is to say the marked multiplication of the microbes and formation of slime noticeable after 3 to 4 days in nutrient solutions containing no active compound are absent.

Staphylococcus aureus = test: Action against bacteria, MIC in bouillon agar (Example 27); type: cell-based; conditions: 336 h, 28° C., 2 weeks
Method: The active compounds listed in Table II are added in concentrations of 1 to 5000 ppm to an agar containing bouillon as the nutrient medium. The nutrient medium is then infected with Staphylococcus aureus and the infected medium is kept at 28° C. and 60 to 70% relative atmospheric humidity for 2 weeks. The MIC is the lowest concentration of active compound at which no growth at all of the species of microbe used takes place.

Pyricularia oryzae = type: in vivo, Pyricularia oryzae (on rice); conditions: rice, protective; active compound concentration 0.025 %; 4 days after inoculation

How did the “Diseased plants in % of the total plants emerged” value (Fusarium nivale) turn out when `CN1C(=O)CN(SC(F)(Cl)Cl)C1=O` was run?
The value was 0.0 % of the total plants emerged.

`O=C1C2CC=CCC2C(=O)N1SC(Cl)(Cl)Cl` (stereo not drawn) [Captan, reference compound] was tested. Which “Disease infestation in % of the untreated control” value (from here on “Disease infestation in %”) [1] did it give?
The value was 100 % of the untreated control.

And the “Diseased plants in % of the total plants emerged” value (Fusarium nivale)?
Its value is 5.4 % of the total plants emerged.

With `CN1C(=O)N(SC(F)(Cl)Cl)C(C)(C)C1=O` [Example 3] as the compound, how does the MIC (Lentinus tigrinus) read?
The MIC was 1 µg/mL (≈ 3.63 µM).

And the MIC (Polyporus versicolor)?
The MIC was 7.5 µg/mL (≈ 27.3 µM).

And the MIC (Penicillium glaucum)?
The MIC was 50 µg/mL (≈ 182 µM).

And the MIC (Sclerophoma pityophila)?
Its MIC is 5 µg/mL (≈ 18.2 µM).

What about the MIC (Alternaria tenuis) of the same compound?
Its MIC is 1.5 µg/mL (≈ 5.45 µM).

What about the MIC (Chaetomium globosum) of the same compound?
The MIC was 1.5 µg/mL (≈ 5.45 µM).

And the MIC (Aspergillus niger)?
The MIC was 10 µg/mL (≈ 36.3 µM).

What about the MIC (Coniophora cerebella) of the same compound?
The MIC was 1 µg/mL (≈ 3.63 µM).

And the MIC (Aureobasidium pullulans)?
The MIC was 1 µg/mL (≈ 3.63 µM).

And the MIC (slime organisms)?
The MIC was 3 µg/mL (≈ 10.9 µM).

What about the MIC (Staphylococcus aureus) of the same compound?
Its MIC is 50 µg/mL (≈ 182 µM).

With `CCCCN1C(=O)CN(SC(F)(Cl)Cl)C1=O` [Example 5] as the compound, how does the MIC (Lentinus tigrinus) read?
The MIC was 0.75 µg/mL (≈ 2.59 µM).

And the MIC (Polyporus versicolor)?
Its MIC is 15 µg/mL (≈ 51.9 µM).

What about the MIC (Penicillium glaucum) of the same compound?
Its MIC is 100 µg/mL (≈ 346 µM).

What about the MIC (Sclerophoma pityophila) of the same compound?
The MIC was 5 µg/mL (≈ 17.3 µM).

What about the MIC (Alternaria tenuis) of the same compound?
Its MIC is 2 µg/mL (≈ 6.92 µM).

And the MIC (Chaetomium globosum)?
The MIC was 3.5 µg/mL (≈ 12.1 µM).

And the MIC (Aspergillus niger)?
Its MIC is 50 µg/mL (≈ 173 µM).

And the MIC (Coniophora cerebella)?
Its MIC is 0.75 µg/mL (≈ 2.59 µM).

What about the MIC (Aureobasidium pullulans) of the same compound?
Its MIC is 2 µg/mL (≈ 6.92 µM).

What about the MIC (slime organisms) of the same compound?
The MIC was 5 µg/mL (≈ 17.3 µM).

And the MIC (Staphylococcus aureus)?
The MIC was 100 µg/mL (≈ 346 µM).

Which results are given for `CC1(C)C(=O)N(C2CCCCC2)C(=O)N1SC(F)(Cl)Cl` [Example 10]?
MIC (Lentinus tigrinus): 0.75 µg/mL (≈ 2.18 µM); MIC (Polyporus versicolor): 15 µg/mL (≈ 43.7 µM); MIC (Penicillium glaucum): 75 µg/mL (≈ 218 µM); MIC (Sclerophoma pityophila): 5 µg/mL (≈ 14.6 µM); MIC (Alternaria tenuis): 3.5 µg/mL (≈ 10.2 µM); MIC (Chaetomium globosum): 1.5 µg/mL (≈ 4.37 µM); MIC (Aspergillus niger): 20 µg/mL (≈ 58.3 µM); MIC (Coniophora cerebella): 0.75 µg/mL (≈ 2.18 µM); MIC (Aureobasidium pullulans): 3.5 µg/mL (≈ 10.2 µM); MIC (slime organisms): 100 µg/mL (≈ 291 µM); MIC (Staphylococcus aureus): 50 µg/mL (≈ 146 µM)

For `O=C1CN(SC(F)(Cl)Cl)C(=O)N1C1CCCCC1` [drawing 16], which “Disease infestation in %” value [1] is on record?
The value was 0.0 % of the untreated control.

`O=C1C2CC=CCC2C(=O)N1SC(Cl)(Cl)Cl` (stereo not drawn) [drawing 19, reference compound] was tested. Which “Disease infestation in %” value (Pyricularia oryzae) did it give?
Its value is 50 % of the untreated control.

Which “Disease infestation in %” value (Pyricularia oryzae) does the source give for `O=C1CN(SC(F)(Cl)Cl)C(=O)N1C1CCCCC1` [drawing 20] here?
Its value is 13 % of the untreated control.
